Data on 3 compounds can be found in PMC9667936, “Functional mapping of the 14-3-3 hub protein as a guide to design 14-3-3 molecular glues” (Chemical Science, 2022).

The structures appear in SMILES notation. Where a SMILES comes first, the peptide text is derived from it. [ ]: non-standard residue; d: D form. The star is where a group is joined. ξ: configuration not given here. FITC = O=C1OC2(c3ccc(O)cc3Oc3cc(O)ccc32)c2ccc(NC(=S)*)cc21; Phe(4-NO2) = N[C@@H](Cc1ccc([N+](=O)[O-])cc1)C(=O)O; ξAla(4-thiazolyl) = NC(Cc1cscn1)C(=O)O; pS = N[C@@H](COP(=O)(O)O)C(=O)O; β3hS = N[C@@H](CO)CC(=O)O; Nva = CCC[C@H](N)C(=O)O; AEA = NCCOCC(=O)O

The target in the assay is T1, 14-3-3γ (Homo sapiens, UniProt P61981).
T1 construct: made in house; host or cells: E. coli NiCo21 (DE3)
T1 sequence (P61981 1-247): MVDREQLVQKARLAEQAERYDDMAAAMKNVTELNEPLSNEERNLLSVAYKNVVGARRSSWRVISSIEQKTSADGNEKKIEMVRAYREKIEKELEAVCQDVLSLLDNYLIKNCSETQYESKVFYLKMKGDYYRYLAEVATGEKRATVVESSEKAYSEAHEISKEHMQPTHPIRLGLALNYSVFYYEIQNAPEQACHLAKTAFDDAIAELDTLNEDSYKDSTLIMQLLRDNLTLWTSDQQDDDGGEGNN
In words: Fluorescence anisotropy (FA) binary binding study: 14-3-3 titrated to fluorescein-labelled peptide. To be noted: for individual ΔΔG of removed residue: ΔG relative to the previously truncated peptide; for Fold change to previous / ΔG / ΔΔG (to previous): Table S3. Here is the method: 14-3-3γ protein expression (FP/ITC experiments)
(§1) A pPROEX HTb expression vector encoding the human 14-3-3 protein gamma (14-3-3γ) with an N-terminal his6-tag was transformed by heat shock into NiCo21 (DE3) competent cells. Single colonies were cultured in 50 mL LB medium (100 µg/mL ampicillin). After overnight incubation at 37 °C, cultures were transferred to 2 L TB media (100 µg/mL ampicillin, 1 mM MgCl2) and incubated at 37 °C until an OD600 nm of 0.8-1.2 was reached. Protein expression was then induced with 0.4 mM isopropyl-β-d-thiogalactoside (IPTG), and cultures were incubated overnight at 18 °C. Cells were harvested by centrifugation (8600 rpm, 20 minutes, 4 °C) and resuspended in lysis buffer (50 mM Hepes, pH 8.0, 300 mM NaCl, 12.5 mM imidazole, 5 mM MgCl2, 2 mM βME) containing cOmplete™ EDTA-free Protease Inhibitor Cocktail tablets (1 tablet/100 ml lysate) and benzonase (1 µl/100 ml). After lysis using a C3 Emulsiflex-C3 homogenizer (Avestin), the cell lysate was cleared by centrifugation (20000 rpm, 30 minutes, 4 °C) and purified using Ni2+-affinity chromatography (Ni-NTA superflow cartridges, Qiagen).
Typically two 5 mL columns (flow 5 mL/min) were used for a 2 L culture in which the lysate was loaded on the column washed with 10 CV wash buffer (50 mM Hepes, pH 8.0, 300 mM NaCl, 25 mM imidazole, 2 mM βME) and eluted in several fractions (2-4 CV) of elution buffer (50 mM Hepes, pH 8.0, 300 mM NaCl, 250 mM imidazole, 2 mM βME). Fractions containing the 14-3-3 protein were combined and dialyzed into 25 mM HEPES pH 8.0, 100 mM NaCl, 10 mM MgCl2, 500 µM TCEP. Finally, the protein was concentrated to ∼60 mg/mL, analyzed Q-Tof LC/MS, and aliquots were flash-frozen for storage at […]
as §1, with “sigma truncated after T231 (14-3-3σΔc) and” for “gamma (14-3-3γ)”, “tablet/ 100” for “tablet/100”, “µl/ 100” for “µl/100”, “ml).” for “ml). After lysis using a C3 Emulsiflex-C3 homogenizer (Avestin), the cell lysate was cleared by centrifugation (20000 rpm, 30 minutes, 4 °C) and purified using Ni2+-affinity chromatography (Ni-NTA superflow cartridges, Qiagen).”
After lysis using a C3 Emulsiflex-C3 homogenizer (Avestin), the cell lysate was cleared by centrifugation (20000 rpm, 30 minutes, 4 °C) and purified using Ni2+-affinity chromatography (Ni-NTA superflow cartridges, Qiagen). Typically two 5 mL columns were used for a 2 L culture in which the lysate was loaded on the column washed with 10 CV wash buffer (50 mM Hepes, pH 8.0, 300 mM NaCl, 25 mM imidazole, 2 mM βME) and eluted with several fractions (2-4 CV) of elution buffer (50 mM Hepes, pH 8.0, 300 mM NaCl, 250 mM imidazole, 2 mM βME). Fractions containing the 14-3-3 protein were combined and dialyzed into 25 mM HEPES pH 8.0, 200 mM NaCl, 10 mM MgCl2, 2 mM βME. In addition, 1 mg TEV was added for each 100 mg purified protein to remove the purification tag. The cleaved sample was then again loaded on a 10 mL Ni-NTA column to separate the cleaved product from the expression tag and residual uncleaved protein. The flowthrough was loaded on a Superdex 75 pg 16/60 size exclusion column (GE Life Sciences) using 25 mM HEPES, 100 mM NaCl, 10 mM MgCl2, 500 μM TCEP (adjusted to pH=8.0) as running buffer. Fractions containing the 14-3-3 protein were pooled and concentrated to ∼60 mg/mL, analyzed Q-Tof LC/MS, and aliquots were flash-frozen for storage at −80 […]
The peptides 1 and 2a-d were synthesized on 50 µmol scale on a Rink amide MBHA resin […]
Background: Polarisation of emitted light reports the rotation of a fluorescent probe.

Where [1] appears, read: FA KD of peptide divided by KD of previous (one amino acid longer) peptide, mean of n = 3.
The mark [2] stands for this setting: KD / KD of previous peptide, replicate 1.
The mark [3] stands for this setting: KD / KD of previous peptide, replicate 2.
[4] abbreviates: KD / KD of previous peptide, replicate 3.
[5] abbreviates: calculated from FA KD, mean of n = 3.
Where [6] appears, read: ΔG minus ΔG of previous peptide, FA, replicate 1.
Where [7] appears, read: ΔG minus ΔG of previous peptide, FA, replicate 2.
[8] abbreviates: ΔG minus ΔG of previous peptide, FA, replicate 3.
The mark [9] stands for this setting: ΔG of peptide minus ΔG of previous (one amino acid longer) peptide, FA, mean of n = 3.

`CCC[C@H](NC(=O)[C@@H](CCCCN)NC(=O)COCCNC(=S)Nc1ccc2c(c1)C(=O)OC21c2ccc(O)cc2Oc2cc(O)ccc21)C(=O)N[C@@H](Cc1ccc([N+](=O)[O-])cc1)C(=O)NC(Cc1cscn1)C(=O)N[C@@H](COP(=O)(O)O)C(=O)N[C@@H](Cc1ccc([N+](=O)[O-])cc1)C(=O)N[C@@H](CO)CC(N)=O` (stereo partly drawn) [2g] ({FITC-AEA}-[dK][Nva][Phe(4-NO2)][ξAla(4-thiazolyl)][pS][Phe(4-NO2)][β3hS]-NH2): the “individual ΔΔG of removed residue” value (FA) worked out at 0.4 kcal/mol. For the same compound, the “Fold change to previous” value runs as follows: under setting [1], 1,85; under setting [2], 1,92; under setting [3], 1,84; under setting [4], 1,79. For the same compound, the ΔG is listed as -7,67 kcal/mol under setting [5]; -7,71 kcal/mol (from FA KD, replicate 1); -7,59 kcal/mol (from FA KD, replicate 2); -7,73 kcal/mol (from FA KD, replicate 3). For the same compound, the “ΔΔG (to previous)” value runs as follows: under setting [6], 0,39 kcal/mol; under setting [7], 0,36 kcal/mol; under setting [8], 0,34 kcal/mol; under setting [9], 0,36 kcal/mol.

Take `CCC[C@H](NC(=O)[C@@H](CCCCN)NC(=O)COCCNC(=S)Nc1ccc2c(c1)C(=O)OC21c2ccc(O)cc2Oc2cc(O)ccc21)C(=O)N[C@@H](Cc1ccc([N+](=O)[O-])cc1)C(=O)NC(Cc1cscn1)C(=O)N[C@@H](COP(=O)(O)O)C(=O)N[C@@H](Cc1ccc([N+](=O)[O-])cc1)C(N)=O` (some centres unmarked) [2h] ({FITC-AEA}-[dK][Nva][Phe(4-NO2)][ξAla(4-thiazolyl)][pS][Phe(4-NO2)]-NH2): under “FA”, the “individual ΔΔG of removed residue” value is 0.6 kcal/mol. For the same compound, the “Fold change to previous” value reads like this: under setting [1], 2,92; under setting [2], 2,91; under setting [3], 2,67; under setting [4], 3,19. For the same compound, the ΔG is, setting by setting: under setting [5], -7,04 kcal/mol; (from FA KD, replicate 1) -7,08 kcal/mol; (from FA KD, replicate 2) -7,00 kcal/mol; (from FA KD, replicate 3) -7,04 kcal/mol. The “ΔΔG (to previous)” value is, setting by setting: under setting [6], 0,63 kcal/mol; under setting [7], 0,58 kcal/mol; under setting [8], 0,69 kcal/mol; under setting [9], 0,63 kcal/mol.

Regarding `CCC[C@H](NC(=O)[C@@H](CCCCN)NC(=O)COCCNC(=S)Nc1ccc2c(c1)C(=O)OC21c2ccc(O)cc2Oc2cc(O)ccc21)C(=O)N[C@@H](Cc1ccc([N+](=O)[O-])cc1)C(=O)NC(Cc1cscn1)C(=O)N[C@@H](COP(=O)(O)O)C(N)=O` (some centres unmarked) [2i] ({FITC-AEA}-[dK][Nva][Phe(4-NO2)][ξAla(4-thiazolyl)][pS]-NH2), under “FA KD relative to the previous (one amino acid longer) peptide”, the “fold change in binding affinity on truncation” value is recorded as “four-fold”. Also, the “cumulative ΔΔG of truncating the entire N- or C-terminus” value (FA, relative to peptide 1 (2d: entire N-terminus; 2i: entire C-terminus)) came out at 4.3 kcal/mol. Further, the “ΔΔG C-term (cumulative, whole C-terminus removed)” value (Table S3, C-term = 2i relative to 1, FA, mean of n = 3) was 4,31 kcal/mol. Besides, the “ΔΔG C-term (cumulative)” value is, setting by setting: (Table S3, C-term = 2i relative to 1, FA, replicate 1) 4,39 kcal/mol; (Table S3, C-term = 2i relative to 1, FA, replicate 2) 4,30 kcal/mol; (Table S3, C-term = 2i relative to 1, FA, replicate 3) 4,23 kcal/mol. Also, the “Fold change to previous” value runs as follows: under setting [1], 4,04; under setting [2], 4,23; under setting [3], 3,56; under setting [4], 4,33. The ΔG is reported as -6,22 kcal/mol under setting [5]; -6,22 kcal/mol (from FA KD, replicate 1); -6,25 kcal/mol (from FA KD, replicate 2); -6,18 kcal/mol (from FA KD, replicate 3). Also, the “ΔΔG (to previous)” value by setting is: under setting [6], 0,85 kcal/mol; under setting [7], 0,75 kcal/mol; under setting [8], 0,87 kcal/mol; under setting [9], 0,82 kcal/mol.
